Columns and labels:
Assay in all cases: relative viability (nuclei count vs DMSO), 5 days (fraction); higher = more cells survive
SK-MES-1 = system: SK-MES-1
In short: (§1)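 Relative viability was taken as the ratio of nuclei in treated wells to nuclei in vehicle wells. Lung cancer cell lines in 1536-well plates received compounds by pin tool one day after seeding, either one drug alone or a fixed anchor-drug dose plus five library-drug doses (not always all listed) in √10 steps. Nuclei were counted on 4× images after 5 days of treatment, and values are medians of duplicate plates.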

COR-L 105 = system: COR-L 105
In short: as §1

HCC-827 = system: HCC-827
In short: as §1

HCC-44 = system: HCC-44
In short: as §1

SW 900 = system: SW 900
In short: as §1

NCI-H2087 = system: NCI-H2087
In short: as §1

H3255 = system: H3255
In short: as §1

NCI-H1793 = system: NCI-H1793
In short: as §1

NCI-H1975 = system: NCI-H1975
In short: as §1

NCI-H1915 = system: NCI-H1915
In short: as §1

NCI-H2023 = system: NCI-H2023
In short: as §1

LCLC-103H = system: LCLC-103H
In short: as §1

A-427 = system: A-427
In short: as §1

LXF-289 = system: LXF-289
In short: as §1

NCI-H1944 = system: NCI-H1944
In short: as §1

NCI-H520 = system: NCI-H520
In short: as §1

SW 1573 = system: SW 1573
In short: as §1

NCI-H522 = system: NCI-H522
In short: as §1

LOU-NH91 = system: LOU-NH91
In short: as §1

NCI-H1993 = system: NCI-H1993
In short: as §1

NCI-H358 = system: NCI-H358
In short: as §1

NCI-H2170 = system: NCI-H2170
In short: as §1

`CN1CCN(CCOc2cc(OC3CCOCC3)c3c(Nc4c(Cl)ccc5c4OCO5)ncnc3c2)CC1` [Saracatinib] + O=C(CCCCCCC(=O)Nc1ccccc1)NO [Vorinostat] (partner 1 µM) showed a relative viability (SK-MES-1; first compound 0.02 µM) of 1.17, a relative viability (SK-MES-1; first compound 0.2 µM) of 1.05 and a relative viability (SK-MES-1; first compound 0.6325 µM) of 1.17. For the same compound, the relative viability (SK-MES-1; first compound 2 µM) was 0.83, the relative viability (COR-L 105; first compound 0.02 µM) was 0.879 and the relative viability (COR-L 105; first compound 0.2 µM) was 0.668. It also gave a relative viability (COR-L 105; first compound 0.6325 µM) of 0.819, a relative viability (COR-L 105; first compound 2 µM) of 0.625 and a relative viability (HCC-827; first compound 0.02 µM) of 0.926. The relative viability (HCC-827; first compound 0.2 µM) was 0.643, the relative viability (HCC-827; first compound 0.6325 µM) was 0.354 and the relative viability (HCC-827; first compound 2 µM) was 0.15. The relative viability (HCC-44; first compound 0.02 µM) was 1.14, the relative viability (HCC-44; first compound 0.2 µM) was 1.14 and the relative viability (HCC-44; first compound 0.6325 µM) was 1. It also gave a relative viability (HCC-44; first compound 2 µM) of 1.19, a relative viability (SW 900; first compound 0.02 µM) of 0.683 and a relative viability (SW 900; first compound 0.2 µM) of 0.407. For the same compound, the relative viability (SW 900; first compound 0.6325 µM) was 0.676, the relative viability (SW 900; first compound 2 µM) was 0.367 and the relative viability (NCI-H2087; first compound 0.02 µM) was 0.696. The relative viability (NCI-H2087; first compound 0.2 µM) was 0.564, the relative viability (NCI-H2087; first compound 0.6325 µM) was 0.54 and the relative viability (NCI-H2087; first compound 2 µM) was 0.95. For the same compound, the relative viability (H3255; first compound 0.02 µM) was 0.79, the relative viability (H3255; first compound 0.2 µM) was 0.684 and the relative viability (H3255; first compound 0.6325 µM) was 0.965. For the same compound, the relative viability (H3255; first compound 2 µM) was 0.337, the relative viability (NCI-H1793; first compound 0.02 µM) was 0.878 and the relative viability (NCI-H1793; first compound 0.2 µM) was 0.482. The relative viability (NCI-H1793; first compound 0.6325 µM) was 0.842, the relative viability (NCI-H1793; first compound 2 µM) was 0.601 and the relative viability (NCI-H1975; first compound 0.02 µM) was 0.72. The relative viability (NCI-H1975; first compound 0.2 µM) was 0.716, the relative viability (NCI-H1975; first compound 0.6325 µM) was 0.725 and the relative viability (NCI-H1975; first compound 2 µM) was 0.563. The relative viability (NCI-H1915; first compound 0.02 µM) was 0.472, the relative viability (NCI-H1915; first compound 0.2 µM) was 0.462 and the relative viability (NCI-H1915; first compound 0.6325 µM) was 0.477. For the same compound, the relative viability (NCI-H1915; first compound 2 µM) was 0.477, the relative viability (NCI-H2023; first compound 0.02 µM) was 0.652 and the relative viability (NCI-H2023; first compound 0.2 µM) was 0.591. For the same compound, the relative viability (NCI-H2023; first compound 0.6325 µM) was 0.73, the relative viability (NCI-H2023; first compound 2 µM) was 0.566 and the relative viability (LCLC-103H; first compound 0.02 µM) was 0.868. For the same compound, the relative viability (LCLC-103H; first compound 0.2 µM) was 0.733, the relative viability (LCLC-103H; first compound 0.6325 µM) was 0.846 and the relative viability (LCLC-103H; first compound 2 µM) was 0.762. For the same compound, the relative viability (A-427; first compound 0.02 µM) was 0.899, the relative viability (A-427; first compound 0.2 µM) was 0.852 and the relative viability (A-427; first compound 0.6325 µM) was 0.795. The relative viability (A-427; first compound 2 µM) was 0.863, the relative viability (LXF-289; first compound 0.02 µM) was 0.78 and the relative viability (LXF-289; first compound 0.2 µM) was 0.573. It also gave a relative viability (LXF-289; first compound 0.6325 µM) of 0.773, a relative viability (LXF-289; first compound 2 µM) of 0.715 and a relative viability (NCI-H1944; first compound 0.02 µM) of 0.54. For the same compound, the relative viability (NCI-H1944; first compound 0.2 µM) was 0.542, the relative viability (NCI-H1944; first compound 0.6325 µM) was 0.509 and the relative viability (NCI-H1944; first compound 2 µM) was 0.358. The relative viability (NCI-H520; first compound 0.02 µM) was 0.652, the relative viability (NCI-H520; first compound 0.2 µM) was 0.471 and the relative viability (NCI-H520; first compound 0.6325 µM) was 0.598. The relative viability (NCI-H520; first compound 2 µM) was 0.477, the relative viability (SW 1573; first compound 0.02 µM) was 0.699 and the relative viability (SW 1573; first compound 0.2 µM) was 0.702. It also gave a relative viability (SW 1573; first compound 0.6325 µM) of 0.664, a relative viability (SW 1573; first compound 2 µM) of 0.47 and a relative viability (NCI-H522; first compound 0.02 µM) of 0.856. It also gave a relative viability (NCI-H522; first compound 0.2 µM) of 0.658, a relative viability (NCI-H522; first compound 0.6325 µM) of 0.897 and a relative viability (NCI-H522; first compound 2 µM) of 0.778. The relative viability (LOU-NH91; first compound 0.02 µM) was 0.87, the relative viability (LOU-NH91; first compound 0.2 µM) was 0.696 and the relative viability (LOU-NH91; first compound 0.6325 µM) was 0.903. For the same compound, the relative viability (LOU-NH91; first compound 2 µM) was 0.628, the relative viability (NCI-H1993; first compound 0.02 µM) was 0.806 and the relative viability (NCI-H1993; first compound 0.2 µM) was 0.651. The relative viability (NCI-H1993; first compound 0.6325 µM) was 0.874, the relative viability (NCI-H1993; first compound 2 µM) was 0.533 and the relative viability (NCI-H358; first compound 0.02 µM) was 0.645. It also gave a relative viability (NCI-H358; first compound 0.2 µM) of 0.442, a relative viability (NCI-H358; first compound 0.6325 µM) of 0.526 and a relative viability (NCI-H358; first compound 2 µM) of 0.255. For the same compound, the relative viability (NCI-H2170; first compound 0.02 µM) was 0.746, the relative viability (NCI-H2170; first compound 0.2 µM) was 0.678 and the relative viability (NCI-H2170; first compound 0.6325 µM) was 0.93. It also gave a relative viability (NCI-H2170; first compound 2 µM) of 0.571.

Source: the supplement of paper PMC10307832
